According to patent US8697736B2, “1H-benzimidazole-4-carboxamides substituted with phenyl at the 2-position are potent PARP inhibitors” (AbbVie Inc., priority 2005, dated 2014):

System: MX-1 Breast Carcinoma Xenograft
Assay: PARP inhibitors in combination with cisplatin in an early staged MX-1 breast carcinoma xenograft model
Type: in vivo, female SCID mice
Conditions: average tumor volume at Day 48; PARPi 25 or 0 mg/kg/day s.c. OMP x7 from day 16 + cisplatin 6 mg/kg/day i.p. qd x1 on day 18; footnote a not given; in mm³ (unit assumed)
Method: PARP Inhibitors in Combination with Cisplatin in an Early Staged MX-1 Breast Carcinoma Xenograft Model
0.2 cc of 1:10 MX-1 tumor brei, was injected subcutaneously into the flank of female SCID mice (Charles River Labs) on study day 0. On day 15, tumors were size matched (188±25 mm^3) and the animals were placed into one of two therapy groups:
Group 1 vehicle (s.c. OMP×7)+Cisplatin 6 mg/kg/day (i.p., qd×1)
Group 2 PARPi 25 mg/kg/day (s.c. OMP×7)+Cisplatin 6 mg/kg/day (i.p., qd×1) The vehicle for both the PARP inhibitor and cisplatin was 0.9% NaCl. There were 8-10 […] in each group. Treatment with the PARPi began on day 16 while cisplatin treatment was started on day 18. At various intervals following tumor cell inoculation, the individual tumor dimensions were serially measured using calibrated microcalipers and the tumor volumes calculated according to the formula V=L×W^2/2 (V:volume, L:length, W:width). Mice were humanely euthanized when the tumor volumes reached a predetermined size.

`N.N.[Cl][Pt][Cl]` [Vhl (PARPi)/Cis, Cisplatin] was tested, and the “Tumor Volume (Day 48)” value was 1389 ± 300.
